Measurements as given in ChEMBL document CHEMBL5620438, “Noducyclamides A1-A4, B1, and B2 from the Cyanobacterium Nodularia sp. NIES-3585” (J Nat Prod, 2024).
In brackets after ≈: the same amount, converted by molar mass. Activity calls are given as the source filed them. The calls are words filed in the database; no cut-off is given here.

Assays:
[1] = tested on: MCF7; experiment: Cytotoxicity against human MCF7 cells assessed as decrease in cell viability incubated for 72 hrs by MTT assay; assay type: functional, cell-based; conditions: MCF7, 72 h
[2] = tested on: MCF7; experiment: Synergistic cytotoxicity against human MCF7 cells assessed as reduction in cell viability incubated for 72 hrs by MTT assay in presence of Noducyclamide B1; assay type: functional, cell-based

SMILES | IC50 [1] [µg/mL] | Activity [2]
CCCCCCC[C@@H]1CC(=O)N[C@@H](C(C)C)C(=O)N[C@H]([C@@H](O)C(C)C)C(=O)N[C@@H](C)C(=O)N[C@H]([C@@H](O)C(C)C)C(=O)N[C@@H](CCC(N)=O)C(=O)N(C)[C@@H]([C@@H](C)CC)C(=O)N[C@H](CC(N)=O)C(=O)N[C@H]([C@H](C)O)C(=O)N2C[C@H](O)C[C@H]2C(=O)N[C@H](C(C)C)C(=O)N[C@@H]([C@@H](C)O)C(=O)N1 | 3 (≈ 2.17 µM) | 
CCCCCCC[C@@H]1CC(=O)N[C@@H](CCC(N)=O)C(=O)N2C[C@H](O)C[C@H]2C(=O)N2C[C@H](O)C[C@H]2C(=O)N[C@@H](Cc2ccc(O)cc2)C(=O)N[C@H](CC(C)C)C(=O)N[C@@H](C(C)C)C(=O)N[C@H](C(C)(C)O)C(=O)N[C@@H](CC(C)C)C(=O)NCC(=O)N1 | 18 (≈ 15.2 µM) | inactive
CCCCCCC[C@@H]1CC(=O)N[C@@H](CCC(N)=O)C(=O)N2C[C@H](O)C[C@H]2C(=O)N2CCC[C@H]2C(=O)N[C@@H](Cc2ccc(O)cc2)C(=O)N[C@H](CC(C)C)C(=O)N[C@@H](C(C)C)C(=O)N[C@H](C(C)(C)O)C(=O)N[C@@H](CC(C)C)C(=O)NCC(=O)N1 | 9.6 (≈ 8.22 µM) | inactive
